{"source": "patent US20120115778A1", "about": "“Methods of Suppressing Appetite by the Administration of Antagonists of the Serotonin HTR1a or HTR2b Receptors or Inhibitors of TPH2” (The Trustees of Columbia University in the City of New York, priority 2009, published 2012)", "key": {"[1]": {"assay": "Food intake in leptin-deficient ob/ob mice after a single dose of LY426965", "assay_type": "in vivo", "settings": "4-week old ob/ob mice, single dose 0.2 mg/20 g of body weight, 12, 24 and 36 h later", "method": "(§1) To determine whether LY426965 could decrease appetite in leptin-deficient ob/ob mice, we administered 4-week old ob/ob mice with a single dose of LY426965 (0.2 mg/20 g of body weight) and measured food intake 12, 24 and 36 h later. […] Experiments were conducted to determine whether LY426965 could rescue, at least in part, the obesity of ob/ob mice if administered chronically, once mice had already developed an obesity phenotype. 4-week old ob/ob mice were administered daily with 20 mg/kg body weight dose of LY426965 for 4 additional weeks.\n(§2) One or 3-month old C57B1/6J inbred female mice were used in these experiments. Two different experimental regimens were utilized to assess the effect of LY426965 on appetite in WT and ob/ob mice."}, "[2]": {"assay": "Acute dose response of LY426965 on food intake in WT mice", "assay_type": "in vivo", "method": "(§3) This decrease in food intake reached 77% of control values when using 20 mg/kg of the compound (FIG. 19 C). […] Thus LY426965 decreases appetite in WT mice by inhibiting serotonin signaling through the Htr1a receptor that is located in the hypothalamus.\nas §2\nAnimals were separated into individual cages one day prior to the experiment. Compound LY426965 was dissolved in water and fed orally (Gavage) according to the weight of the mouse at doses 1, 5, 10 and 20 mg/kg BW two hours prior to the commencement of the dark cycle. Control animals received the same volume of vehicle. Food intake was measured every 12 hours for 36 hours after giving one dose of the antagonist."}, "[3]": {"target": "T1, Htr1a receptor (Homo sapiens, UniProt P08908)", "T1 sequence (P08908 1-422)": "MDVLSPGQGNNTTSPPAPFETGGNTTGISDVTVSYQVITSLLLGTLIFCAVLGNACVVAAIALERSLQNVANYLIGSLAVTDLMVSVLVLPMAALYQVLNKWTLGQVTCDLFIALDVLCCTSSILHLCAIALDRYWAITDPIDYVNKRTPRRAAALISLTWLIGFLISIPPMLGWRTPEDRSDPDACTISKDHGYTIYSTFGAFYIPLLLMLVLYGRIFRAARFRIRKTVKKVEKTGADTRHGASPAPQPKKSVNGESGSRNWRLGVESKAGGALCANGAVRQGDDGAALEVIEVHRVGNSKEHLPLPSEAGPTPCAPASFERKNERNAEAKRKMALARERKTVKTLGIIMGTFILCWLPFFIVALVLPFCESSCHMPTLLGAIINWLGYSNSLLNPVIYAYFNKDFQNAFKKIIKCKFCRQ", "settings": "cited from earlier work"}, "[4]": {"assay": "Chronic treatment of ob/ob mice with LY426965", "assay_type": "in vivo", "settings": "20 mg/kg body weight daily for 4 weeks from 4 weeks of age", "method": "as §1\nIn this experiment one-month old WT and ob/ob mice (housed individually in metabolic cages) were divided into different groups and injected with the LY426965 dissolved in water and diluted in saline (final concentration 0.9%) once a day, 2 hours prior to the commencement of the dark cycle, for 4 weeks. Body weight was recorded everyday and dose of the drug and vehicle adjusted accordingly. At the end of the experiment all mice were subjected to measurement of food intake every 12 hours over a period of 36 hours."}, "[5]": {"assay": "Appetite in Htr1aPomc-/- mice treated with LY426965", "assay_type": "in vivo", "method": "These two hypotheses were tested through the use of a small molecule that selectively antagonizes signaling through Htr1a receptor. Other Htr1a and 2b receptor antagonists for use in the present invention are discussed below.\nAnimals were housed under 12 h light/12 h dark conditions with ad libitum access to food and water, and were used after a minimum of 4 days of acclimatization to the housing conditions. Control, Htr1aPomc−/−, Htr2bPomc−/−, Htr1a; 2 bPomc−/−, CrebPomc−/− mice were separated into individual cages one day prior to the experiment. Food intake and energy expenditure was measured every 12 hours for 36 hours essentially as described previously (6, 17)."}, "[6]": {"assay": "Mass spectrometric analysis of mice hypothalami after administration of the compound", "assay_type": "in vivo", "method": "as §3"}}, "note": "pKi: −log10 of the molar value."}
{"smiles": "COc1ccccc1N1CCN(CC[C@](C)(C(=O)C2CCCCC2)c2ccccc2)CC1", "note": "[LY426965]", "values": [{"measurement": "food intake lower than in vehicle-treated mice", "setting": "[1]", "result": "20-25%"}, {"measurement": "decrease in food intake", "setting": "[2]; 20 mg/kg, WT mice", "result": "77 % of control values"}, {"measurement": "appetite (dose response)", "setting": "[2]; 1 to 20 mg/kg of body weight fed to 12 week-old C57B16/J mice", "result": "dose-dependent decrease in appetite"}, {"measurement": "selectivity over other serotonin and non-serotonin receptor subtypes", "setting": "[3]", "result": "≥ 20", "unit": "fold"}, {"measurement": "pKi", "setting": "[3]; read-out: affinity for the Htr1a receptor (Ki)", "result": 8.33}, {"measurement": "obesity phenotype", "setting": "[4]", "result": "significantly decreased the obesity phenotype"}, {"measurement": "appetite", "setting": "[5]", "result": "not decreased"}, {"measurement": "compound reaching the hypothalamus", "setting": "[6]", "result": "could reach the hypothalamus"}]}
